Experimental data as given in patent publication US10016382B2, “Method for decreasing skeletal muscle damage and/or oxidative stress in mammals” (LONZA INC., priority 2014, dated 2018).
Where “and” joins values, the source holds several entries; their conditions need not be identical. Equal values may be shown once. Marks after values point to notes of the source that are not given here.

Columns and labels:
Creatine kinase (CK) = assay: Serum creatine kinase (muscle damage biomarker), Example 1; format: in vivo, dog; settings: for Creatine Kinase, serum, Mean / Change in Creatine Kinase Activity, post-run minus pre-run: Ex.1, 250 mg/d; for Change in Creatine Kinase Activity, post-run minus pre-run: following 15 mile long run at 13 wk, mean ± SEM
Method: Blood Analysis: Serum samples were taken at three different times from each dog during the 90 day period. The blood samples were collected as follows: 1.) just prior to scanning each dog for body composition at the beginning of the study, 2.) prior to the long run on the 13th week, and 3.) following the long run on the 13th week. The serum samples were analyzed for Phosphocreatine Kinase and Canine Myoglobin to determine the amount of muscle protein leakage that occurred following the long run and TBARS and Total Antioxidant Capacity (TAC) were determined to evaluate the antioxidant status of each of the test dogs during the exercise program. The final blood sample was taken 24 hr after the long run to obtain maximum protein leakage based on previous similar types of exercise research with human athletes. Biomarkers and Assay Methods: Blood was drawn from each dog using a serum separator tube at three different times during the 90 day period: 1.) just prior to scanning each dog for body composition at the beginning of the study, 2.) prior to the long run on the 13th week, and 3.) following the long run on the 13th week. The final blood sample was taken 24 hr after the long run to obtain maximum protein leakage based on previous similar types of exercise research with human athletes. Each time after the blood was drawn it was allowed to clot before being centrifuged for 15 min at 2000 g at 4° C. Serum was aliquoted into 1.5 mL microcentrifuge tubes and stored at −80° C. until assays were ran following the end of the study. Creatine kinase (CK) and canine myoglobin were measured to determine the amount of muscle protein leakage that occurred following the long run. Thiobarbituric acid reactive substances (TBARS) and total antioxidant capacity (TAC) were measured to evaluate the antioxidant status of each of the test dogs during the exercise program. Serum samples were analyzed for total antioxidant capacity (TAC) and thiobarbituric acid reactive substances (TBARS) using commercially available colorimetric kits supplied by Cayman Chemical Company (Ann Arbor, Mich.) per manufacturer instructions. Serum canine myoglobin levels were determined using a commercially available ELISA supplied by Innovate Research (Novi, Mich.) per manufacturer instructions. Creatine kinase activity was determined colorimetrically using a commercially available kit supplied by BioVision (San Francisco, Calif.).

skeletal muscle = assay: Fractional breakdown rate (FBR) of skeletal muscle, 3-methylhistidine, Example 2 part two; format: in vivo, dog; settings: for FBR: run, muscle samples
Description: Twenty-six Labrador Retrievers ranging in age from 1.5 to 4.5 years were chosen from part one of the study and were fed for an additional 60 days following the termination of part one of the study. Test dogs remained in their previous treatment groups. Measurements on Actical movements/kg BW/mile endurance runs obtained during part one of the study were utilized to ensure that both the control and the L-carnitine groups were equal for performance potential. The lean body mass of the test dogs was determined by scanning with the DEXA as an additional measure for ensuring equal groups. Twelve dogs (6 males and 6 females) were assigned to each treatment group. Two additional dogs (1 male and 1 female) were fed the low carnitine basal diet of the control group and were used as controls that were not enriched with isotopes during the study; these two control dogs were used to measure the natural amount of 15N Phe in the sample. During the 60 day trial, the test dogs were fed low-carnitine basal diets with or without L-carnitine supplementation in a manner analogous to that of part one of the study. For three days prior to the final muscle biopsy and blood collection, all test dogs were feed an “all vegetarian plus egg” diet from Purina LabDiet that had nutrient specifications that were equivalent to that of the low carnitine basal diet. […] At the end of the 60 day training program, 24 of the dogs (12 resting and 12 running) were infused with a bolus dose of 15N Phe. […] Forty-five minutes after infusion, a 5 mm Bergstrom muscle biopsy needle was used to take a biopsy of the biceps femoris muscle. The muscle samples were quickly frozen in liquid nitrogen and placed in a −80° C. freezer for later analysis]. Twenty-four hours after the resting dogs were infused with 15N Phe, the remaining 12 dogs (6 non-carnitine; 3 male and 3 female and 6 L-carnitine; 3 male and 3 female) were run for a 15 mile endurance run. Following a 30 minute period of measured physiological recovery (heart rate and body temperature), test dogs that completed the 15 mile run were infused with a 2% 15N Phe solution as described above; muscle biopsies were taken 45 minutes after infusion. Blood samples were taken from the carotid artery for each test dog and analyzed for 3 MH. Three days prior to taking the blood samples, the dogs were fed the “all vegetable plus egg” non-meat diet from Purina LabDiet to ensure that the 3 MH found in the blood represented the skeletal muscle protein breakdown. To process the samples, the acid-soluble fraction containing free amino acids was removed by addition of 2% (w/v) perchloric acid. After homogenization, samples were centrifuged at 3,000×g, and the supernatant, containing free amino acids, was removed. The protein precipitate was washed three times with 2% perchloric acid before being hydrolyzed in 6N HCL. The supernatant and precipitate, respectively, were then run through an ion-exchange column packed with Dowex 50WX8-200. Phenylalanine and 3-methylhistidine (3-MH) were eluted with 2 mL of 4N NH4OH and 1 mL of nanopure H2O into a new vial and then dried under vacuum. The tert-butyldimethylsilyl (tBDMS) derivative was formed by adding 800 μL of C2CH3CN-MTBSTFA (1:1) and incubating at 110° C. for 60 minutes. The same mass spectrometer was used to determine 3-MH. […] The 238 m/z fragment of 3-MH was monitored. The muscle samples were analyzed for the fractional breakdown rate (FBR). FBR was calculated as kd=3-MH daily excretion/3-MH muscle pool×100. […]

Structure (SMILES): C[N+](C)(C)C[C@H](O)CC(=O)[O-] [L-carnitine]
- Creatine Kinase Least Sq Mean (Creatine kinase (CK); Baseline): 24.88 mU/mL
- Creatine Kinase Least Sq Mean (Creatine kinase (CK); Baseline, F): 35.85 mU/mL
- Creatine Kinase Least Sq Mean (Creatine kinase (CK); Baseline, M): 13.91 mU/mL
- Creatine Kinase, serum, Mean (Creatine kinase (CK); Baseline, both sexes): 22.9 mU · mL
- Creatine Kinase, serum, Mean (Creatine kinase (CK); Baseline, females): 35.8 mU · mL
- Creatine Kinase, serum, Mean (Creatine kinase (CK); Baseline, males): 13.9 mU · mL
- Creatine Kinase, serum, Mean (Creatine kinase (CK); Post-run (24 hr after 15 mile run), both sexes): 16.1 mU · mL
- Creatine Kinase, serum, Mean (Creatine kinase (CK); Post-run, females): 19.9 mU · mL
- Creatine Kinase, serum, Mean (Creatine kinase (CK); Post-run, males): 12.2 mU · mL
- Creatine Kinase, serum, Mean (Creatine kinase (CK); Pre-run (24 hr before 15 mile run), both sexes): 7.0 mU · mL
- Creatine Kinase, serum, Mean (Creatine kinase (CK); Pre-run, females): 6.9 mU · mL
- Creatine Kinase, serum, Mean (Creatine kinase (CK); Pre-run, males): 7.0 mU · mL
- Change in Creatine Kinase Activity, post-run minus pre-run (Creatine kinase (CK); both sexes, text: units): 9.3 and 9.3 ± 1.86 n = 18
- Change in Creatine Kinase Activity, post-run minus pre-run (Creatine kinase (CK); females): 13.06 ± 2.06 n = 9
- Change in Creatine Kinase Activity, post-run minus pre-run (Creatine kinase (CK); males): 5.54 and 5.54 ± 2.63 n = 9
- Creatine Kinase Least Sq Mean (Creatine kinase (CK); Post-run): 16.08 mU/mL
- Creatine Kinase Least Sq Mean (Creatine kinase (CK); Post-run, F): 19.94 mU/mL
- Creatine Kinase Least Sq Mean (Creatine kinase (CK); Post-run, M): 12.21 mU/mL
- Creatine Kinase Least Sq Mean (Creatine kinase (CK); Pre-run): 6.96 mU/mL
- Creatine Kinase Least Sq Mean (Creatine kinase (CK); Pre-run, F): 6.888 mU/mL
- Creatine Kinase Least Sq Mean (Creatine kinase (CK); Pre-run, M): 7.032 mU/mL
- Creatine Kinase Least Sq Mean (Creatine kinase (CK); Treatment * Sex, F): 35.85 mU/mL
- Creatine Kinase Least Sq Mean (Creatine kinase (CK); Treatment * Sex, M): 13.91 mU/mL
- Creatine Kinase Least Sq Mean (Creatine kinase (CK); Treatment level, all dogs): 24.88 mU/mL
- Creatine Kinase, mixed model Estimate, term Time[Post-run-Pre-run] * Treatment[L-carnitine] (Creatine kinase (CK); serum, model term): −2.544 mU/mL
- Creatine Kinase, mixed model Estimate, term Time[Post-run-Pre-run] * Treatment[L-carnitine] * Sex[F] (Creatine kinase (CK); serum, model term): 1.335 mU/mL
- Creatine Kinase, mixed model Estimate, term Time[Pre-run-Baseline] * Treatment[L-carnitine] (Creatine kinase (CK); serum, model term): −3.029 mU/mL
- Creatine Kinase, mixed model Estimate, term Time[Pre-run-Baseline] * Treatment[L-carnitine] * Sex[F] (Creatine kinase (CK); serum, model term): −5.661 mU/mL
- Creatine Kinase, mixed model Estimate, term Treatment[L-carnitine] (Creatine kinase (CK); serum, model term): 3.121 mU/mL
- Creatine Kinase, mixed model Estimate, term Treatment[L-carnitine] * Sex[F] (Creatine kinase (CK); serum, model term): 5.935 mU/mL
- Fractional Breakdown Rate (FBR) of muscle samples (skeletal muscle; Ex.2 part two, 250 mg/d, adjusted for gender and exercise state): 1.92%
- FBR (% protein breakdown rate/day) of skeletal muscle (skeletal muscle; Ex.2 part two, 250 mg/d, exercised females (15 mile endurance run)): 3.26%
- FBR of skeletal proteins (skeletal muscle; Ex.2 part two, 250 mg/d, running males): 1.26%
- FBR (skeletal muscle; Female): 3.26^a %
- FBR (skeletal muscle; Male): 1.26^a %
